One molecule from PMC6000956, “Immunomodulatory activities of pixatimod: emerging nonclinical and clinical data, and its potential utility in combination with PD-1 inhibitors” (Journal for Immunotherapy of Cancer, 2018) can be followed below.

The subject of this assay is NK cells. The experiment in a line: NK cell activation in spleen by route of administration. It counts as in vivo, C57BL/6 mice. Conditions: 20 mg/kg IP, IV or SC, spleens 2 days later; similar magnitude irrespective of route. As to the method: To investigate the effect that pixatimod route of administration has upon the activity of this compound, C57BL/6 mice were treated with pixatimod 20 mg/kg intraperitoneally (IP), intravenously (IV) or subcutaneously (SC) and 2 days later, spleens were isolated to study the activation levels of NK cells for surface expression of CD69 or intracellular expression of IFN-γ. Antibodies were CD3ε (145-2C11), NK1.1 (PK136), CD69 (H1.2F3), IFN-γ (XMG1.2), hamster IgG1 isotype (G235–2356) and rat IgG1 isotype (R3–34) were from BD Biosciences (San Jose, CA, USA). Intracellular staining for IFN-γ was performed following ex vivo stimulation of splenocytes for 4 h with 20 ng/ml PMA and 50 ng/ml ionomycin in the presence of 5 μg/mL brefeldin A. Intracellular staining for IFN-γ was performed following treatment with Cytofix/Cytoperm (BD Biosciences) solution. Flow cytometric data were acquired using a FACSCanto flow cytometer (BD Biosciences), and events were analysed using FlowJo Version 9.9.6 software (TreeStar, Ashland, OR, USA).

With `CC(C)CCC[C@@H](C)[C@H]1CC[C@H]2[C@@H]3CC[C@H]4C[C@@H](O[C@@H]5O[C@H](COS(=O)(=O)O)[C@@H](O[C@H]6O[C@H](COS(=O)(=O)O)[C@@H](O[C@H]7O[C@H](COS(=O)(=O)O)[C@@H](O[C@H]8O[C@H](COS(=O)(=O)O)[C@@H](OS(=O)(=O)O)[C@H](OS(=O)(=O)O)[C@H]8OS(=O)(=O)O)[C@H](OS(=O)(=O)O)[C@H]7OS(=O)(=O)O)[C@H](OS(=O)(=O)O)[C@H]6OS(=O)(=O)O)[C@H](OS(=O)(=O)O)[C@H]5OS(=O)(=O)O)CC[C@]4(C)[C@H]3CC[C@]12C` [pixatimod], the “expression of IFN-γ and CD69 on NK cells” value was “increased”.
